The text below walks through data of article PMC2556223 (Journal of biomolecular screening, 2008).

One may read the EC50 as the concentration that produces a half-maximal response. As usually defined, the CC50 is the concentration at which the toxic effect on the cells reaches its halfway point.

The test system of one data set is HPIV3. Kind of data set: Dose-response CPE assay, Vero cells. In kind it is cell-based, human parainfluenzavirus type 3.
Data set [1] can be described thus: Quantitative cytotoxicity assay. Type of data set: cell-based.
The test system of another data set is MV-Ibd. Kind of data set: Dose-response CPE assay against AS-48-resistant MV strain. The following applies: Measles morbillivirus, read-out: EC50 (MV-Ibd).
The target of data set [2] is MV H and F envelope glycoproteins (Measles virus, UniProt P08362+P69353). The experiment in a line: cell-based.
The next data set has as its system MV-Alaska. Kind of data set: Dose-response curves based on suppression of viral CPE. Type of data set: cell-based, measles virus.
Another data set has as its system CDV-752. The experiment in a line: Dose-response CPE assay, Vero-dogSLAM cells. In kind it is cell-based, canine distemper virus.
Another data set deals with MV-AII-5. Kind of data set: Dose-response CPE assay against AS-136A-adapted MV variant. The following applies: read-out: EC50 (MV-AII-5); MV-Alaska variant adapted to grow in presence of RdRp inhibitor AS-136A; highest concentration assessed 37.5 μM.
Another data set has as its system cells. Kind of data set: Quantitative cytotoxicity assay. In kind it is cell-based.

MV H and F envelope glycoproteins, sequence (P08362 whole entry): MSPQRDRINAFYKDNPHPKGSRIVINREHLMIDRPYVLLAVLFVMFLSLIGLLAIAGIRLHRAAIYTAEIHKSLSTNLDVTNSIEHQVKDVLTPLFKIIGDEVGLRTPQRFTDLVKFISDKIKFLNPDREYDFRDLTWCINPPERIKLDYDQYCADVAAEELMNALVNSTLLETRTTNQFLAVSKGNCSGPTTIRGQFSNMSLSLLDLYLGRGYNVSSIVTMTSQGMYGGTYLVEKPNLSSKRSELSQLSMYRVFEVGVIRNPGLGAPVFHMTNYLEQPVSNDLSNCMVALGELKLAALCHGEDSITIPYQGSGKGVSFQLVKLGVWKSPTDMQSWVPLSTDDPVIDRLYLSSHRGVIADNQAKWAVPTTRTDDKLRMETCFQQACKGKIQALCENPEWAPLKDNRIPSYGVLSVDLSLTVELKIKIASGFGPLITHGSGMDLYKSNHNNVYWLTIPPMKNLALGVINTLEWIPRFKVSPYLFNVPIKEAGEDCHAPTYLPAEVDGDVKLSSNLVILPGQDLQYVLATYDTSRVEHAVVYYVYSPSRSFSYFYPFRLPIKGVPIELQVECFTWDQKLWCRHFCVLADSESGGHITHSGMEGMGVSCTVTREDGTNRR
MV H and F envelope glycoproteins, sequence (P69353 113-550): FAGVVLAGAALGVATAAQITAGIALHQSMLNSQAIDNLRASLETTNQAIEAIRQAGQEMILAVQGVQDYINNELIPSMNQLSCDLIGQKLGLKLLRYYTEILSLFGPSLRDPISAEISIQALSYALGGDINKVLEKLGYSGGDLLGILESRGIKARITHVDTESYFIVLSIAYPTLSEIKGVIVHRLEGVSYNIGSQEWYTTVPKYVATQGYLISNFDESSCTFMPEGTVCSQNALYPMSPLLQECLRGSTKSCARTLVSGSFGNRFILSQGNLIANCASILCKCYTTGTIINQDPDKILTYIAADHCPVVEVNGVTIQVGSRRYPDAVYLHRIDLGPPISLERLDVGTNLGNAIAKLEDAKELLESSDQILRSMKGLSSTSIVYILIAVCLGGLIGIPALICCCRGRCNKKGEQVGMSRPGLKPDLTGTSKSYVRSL
MV H and F envelope glycoproteins, sequence (P69353 24-112): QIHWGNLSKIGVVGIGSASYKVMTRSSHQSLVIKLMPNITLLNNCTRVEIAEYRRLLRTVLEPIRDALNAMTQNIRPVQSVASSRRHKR

Turning to `O=C(Cc1cccs1)Nc1nc2c(s1)CCCC2` [compound 4256670], the EC50 with HPIV3 (Human respirovirus 3, Vero, in Homo sapiens, read-out: EC50 (HPIV3)) came to 5.8 ± 0.6 µM; in the data set with MV-Ibd, 26.6 ± 9.3 µM; in data set [2], 22 µM; in the data set on MV-Alaska (Measles morbillivirus, 96 h, read-out: EC50 (MV-Alaska)) it was 2.2 ± 0.3 µM; in the data set with CDV-752 (canine distemper virus, read-out: EC50 (CDV-752)), 3.9 ± 0.2 µM. In addition, in data set [1], the 50% cytotoxic concentration (CC50) at 24 h is roughly 150 µM. For the same compound, in data set [1], the selectivity ratio was determined as 68. Moreover, the “Suppression of reporter expression” value in data set [2] (at 5 μM) was “did not suppress reporter expression at all”.

`Cc1ccc(N(Cc2ccc(C(=O)NC3CCCCC3)cc2)S(C)(=O)=O)cc1C` [compound 14722514]: in the data set on MV-AII-5, the half-maximal effective concentration (EC50) came to 3.6 ± 1.6 µM. Moreover, the “EC50 (HPIV3)” value in the data set on HPIV3 (Vero cells, highest concentration assessed 37.5 μM) is given as “no activity detected”. The compound also gave a cytotoxic concentration (CC50) with cells (24 h, absence of virus, highest concentration assessed 150 μM, averages of two experiments) of roughly 150 µM. For the same compound, the “SI (CC50/EC50)” value with cells (specificity index, CC50 / EC50 against MV-Alaska) worked out at 214. Also, in the data set on MV-Alaska (biotesting of chemically re-synthesized compound, data not shown), the “Activity of re-synthesized compound versus original library substance” value is given as “essentially identical to the original substances stored in the library”. The “EC50 (CDV-752)” value in the data set with CDV-752 (Vero-dogSLAM cells, highest concentration assessed 37.5 μM) was “no activity detected”.
